Experimental data taken from patent US9567342B2, “Certain protein kinase inhibitors” (SHANGHAI FOCHON PHARMACEUTICAL CO., LTD., priority 2012, dated 2017).
Each block holds one molecule with its values, some of them ahead of it.

Experiments:
[1] = system: SU-DHL-1 cells; test: Inhibition activity of cell proliferation (CCK-8 assay); assay type: cell-based; conditions: Homo sapiens, 72 h exposure
Method: SU-DHL-1 cells were seeded in 96-well tissue culture plates. On the next day, cells were exposed to various concentrations of compounds and further cultured for 72 h. Cell proliferation was then determined using Cell Counting Kit-8 [(CCK-8), Dojindo]assay. Briefly, add 10 μL of the CCK-8 solution to each well of the plate. Incubate the plate for 1-4 hours in the incubator. Measure the absorbance at 450 nm using a multi-well spectrophotometer (SpectraMAX 190, Molecular Devices). The inhibition rate (%) was calculated using the following equation: [1−(A450 Compound/A450 Control)]×100%. IC50 values were calculated according to inhibition curve by four-parameter fit.

[2] = system: NCI-H2228 cells; test: In vivo antitumor activity, NCI-H2228 cells implanted sc in nude mice; conditions: QD, oral, NCI-H2228 xenograft
Method: Male nude mice (6-week old) were housed in a specific pathogen-free room with a 12 h light/dark schedule at 20-25° C. and were fed an autoclaved chow diet and water ad libitum.
NCI-H2228 cells at a density of […] in 200 μL were first implanted sc into the right flank of each nude mice and then allowed to grow to above 230 mm^3, the mice were randomly assigned into control and treatment groups (n=6 per group for compound treated group, n=12 per group for vehicle group). Vehicle control group were given vehicle alone, and treatment groups were received Compound 4, LDK378 or Crizotinib as indicated doses via oral administration once daily for 21 days. The mice tumor volumes in each group were measured twice per week.

Compound: Cc1cc(Nc2nc(Nc3ccccc3S(=O)(=O)C(C)C)c3c(C)n[nH]c3n2)c2c(c1C1CCN(C)CC1)C[C@@H](C)O2 [Example 4]
IC50 [1]: 10.9 nM | Mean relative tumor volume (RTV) ± S.E. ([2]; D0, 10 mg/kg): 100.00 | Mean relative tumor volume (RTV) ± S.E. ([2]; D4, 10 mg/kg): 52.92 | Mean relative tumor volume (RTV) ± S.E. ([2]; D7, 10 mg/kg): 36.55 | Mean relative tumor volume (RTV) ± S.E. ([2]; D11, 10 mg/kg): 29.20 | Mean relative tumor volume (RTV) ± S.E. ([2]; D14, 10 mg/kg): 18.82 | Mean relative tumor volume (RTV) ± S.E. ([2]; D18, 10 mg/kg): 9.48 | Mean relative tumor volume (RTV) ± S.E. ([2]; D21, 10 mg/kg): 5.28

Compound: C[C@@H](Oc1cc(-c2cnn(C3CCNCC3)c2)cnc1N)c1c(Cl)ccc(F)c1Cl [Crizotinib]
IC50 [1]: 75.4 to 154 nM | Mean relative tumor volume (RTV) ± S.E. ([2]; D0, 50 mg/kg): 100.00 | Mean relative tumor volume (RTV) ± S.E. ([2]; D4, 50 mg/kg): 67.71± | Mean relative tumor volume (RTV) ± S.E. ([2]; D7, 50 mg/kg): 54.10 | Mean relative tumor volume (RTV) ± S.E. ([2]; D11, 50 mg/kg): 44.71 | Mean relative tumor volume (RTV) ± S.E. ([2]; D14, 50 mg/kg): 42.69 | Mean relative tumor volume (RTV) ± S.E. ([2]; D18, 50 mg/kg): 41.44 | Mean relative tumor volume (RTV) ± S.E. ([2]; D21, 50 mg/kg): 43.69

Compound: Cc1cc(Nc2ncc(Cl)c(Nc3ccccc3S(=O)(=O)C(C)C)n2)c(OC(C)C)cc1C1CCNCC1 [LDK378]
IC50 [1]: 94.6 to 339 nM | Mean relative tumor volume (RTV) ± S.E. ([2]; D0, 20 mg/kg): 100.00 | Mean relative tumor volume (RTV) ± S.E. ([2]; D4, 20 mg/kg): 71.66 | Mean relative tumor volume (RTV) ± S.E. ([2]; D7, 20 mg/kg): 56.79 | Mean relative tumor volume (RTV) ± S.E. ([2]; D11, 20 mg/kg): 49.09 | Mean relative tumor volume (RTV) ± S.E. ([2]; D14, 20 mg/kg): 48.58 | Mean relative tumor volume (RTV) ± S.E. ([2]; D18, 20 mg/kg): 35.67 | Mean relative tumor volume (RTV) ± S.E. ([2]; D21, 20 mg/kg): 31.44

Compound: Cc1cc(Nc2nc(Nc3ccccc3S(=O)(=O)C(C)C)c3c(C)n[nH]c3n2)c2c(c1C1CCNCC1)CCO2 [Example 1]
IC50 [1]: 25.5 nM

The remaining lines, values ahead:

IC50 [1]: 86 nM
Compound: Cc1cc(Nc2ncc(Cl)c(Nc3ccccc3S(=O)(=O)C(C)C)n2)c2c(c1C1CCN(C(=O)[C@H](C)N)CC1)C[C@@H](C)O2 [Example 22, (S)-2-amino-1-(4-((R)-7-((5-chloro-4-((2-(isopropylsulfonyl)phenyl)amino)pyrimidin-2-yl)amino)-2,5-dimethyl-2,3-dihydrobenzofuran-4-yl)piperidin-1-yl)propan-1-one]

IC50 [1]: 117 nM
Compound: Cc1cc(Nc2ncc(Cl)c(Nc3ccccc3S(=O)(=O)C(C)C)n2)c2c(c1C(=O)N1CCN(C)CC1)C[C@H](C)O2 [Example 47, (S)-(7-((5-chloro-4-((2-(isopropylsulfonyl)phenyl)amino)pyrimidin-2-yl)amino)-2,5-dimethyl-2,3-dihydrobenzofuran-4-yl)(4-methylpiperazin-1-yl)methanone]

IC50 [1]: 11.6 nM
Compound: CC(=O)N1CCC(c2c(C)cc(Nc3ncc(Cl)c(Nc4ccccc4S(=O)(=O)C(C)C)n3)c3c2C[C@@H](C)O3)CC1 [Example 16, (R)-1-(4-(7-((5-chloro-4-((2-(isopropylsulfonyl)phenyl)amino)pyrimidin-2-yl)amino)-2,5-dimethyl-2,3-dihydrobenzofuran-4-yl)piperidin-1-yl)ethanone]
